Assay results: patent publication US9701645B2 (priority 2005, dated 2017)
Where two headings read alike, the source gives them in different places.

Key:
delta-opioid receptor = molecular target: T1, delta-opioid receptor (Rattus norvegicus, UniProt P33533); experiment: Radioligand binding, delta receptor ([3H]DPDPE)
T1 construct: delta and mu receptors from rat whole brain homogenate; from tissue; host or cells: rat whole brain homogenate (membrane fractions)
Procedure: (§1) The basic pharmacology of the Formulas (i)-(iv) is described below in terms of receptor binding affinity (delta and mu receptors from rat whole brain homogenate; kappa receptors from guinea pig cerebellar homogenate), intrinsic activity in mouse isolated vas deferens (delta receptor) and guinea pig isolated ileum (mu receptor).
(§2) Membrane fractions were incubated with test compound or naloxone (1×10^−6 M) plus 0.1 nM of the delta-opioid receptor agonist [^3H] DPDPE (specific activity 50.6 Ci/mmol), 0.1 nM of the mu-opioid receptor agonist [^3H]DAMGO (specific activity 50.0 Ci/mmol) or 0.1 nM of the kappa-opioid receptor agonist [^3H]U69593 (specific activity 41.4 Ci/mmol) in 2 ml of 10 mM Tris-HCl buffer containing 5 mM MgCl2 and protease inhibitors. Incubation was carried out for 90 min at 25° C. in order to permit the complete equilibration of the radioligand with its receptor. The reaction was terminated by rapid filtration through Whatman GF/C glass fiber filters using a cell harvester (model M-48R, Brandel Instruments, Gaithersberg, Md.) followed by two 5 ml rinses with ice-cold 50 mM Tris buffer. Non-specific binding was defined as that radioligand bound in the presence of 1×10^−6 M naloxone.

mu-opioid receptor [1] = molecular target: T2, mu-opioid receptor (Rattus norvegicus, UniProt P33535); experiment: Radioligand binding, mu receptor ([3H]DAMGO)
T2 construct: delta and mu receptors from rat whole brain homogenate; from tissue; host or cells: rat whole brain homogenate (membrane fractions)
Procedure: as §1, §2

kappa-opioid receptor [2] = molecular target: T3, kappa-opioid receptor (Cavia porcellus, UniProt P41144); experiment: Radioligand binding, kappa receptor ([3H]U69593); parameters: species or system guinea pig
T3 construct: kappa receptors from guinea pig cerebellar homogenate; from tissue; host or cells: guinea pig cerebellar homogenate (membrane fractions)
Procedure: as §1, §2

delta receptor = molecular target: T4, delta receptor (Mus musculus, UniProt P32300); experiment: Intrinsic activity, electrically-induced contractions of mouse isolated vas deferens (MVD); format: cell-based
T4 construct: vasa deferentia were isolated from male CD-1 mice; tissue Charles River; host or cells: isolated vas deferens of male CD-1 mice
Procedure: as §1
Tension development in isolated mouse vas deferens was measured as described previously (Chang et al., 1993). Following cervical dislocation, vasa deferentia were isolated from male CD-1 mice (Charles River, Raleigh, N.C.) weighing 20-25 g. Muscles were suspended in individual organ baths containing Mg-free Krebs-Henseleit solution (37° C., aerated with O2—CO2, 95:5) of the following composition (mM): NaCl, 117.5; KCl, 4.75; CaCl2, 2.6; KH2PO4, 1.2; NaHCO3, 24.5; and glucose, 11. The vas deferens segments were positioned between platinum electrodes (Radnoti Glassware Technology Inc., Monrovia, Calif.) and connected to a Grass (Grass-Telefactor, West Warwick, R.I.) FTO3 isometric force transducer under a resting tension of 0.5 g. Muscles were stimulated to contract by administering 400 msec pulse trains (1 msec duration, supramaximal voltage, 10 Hz) with a Grass S88 stimulator. An IC50 value for test compound inhibition of electrically-induced contractions was produced through the addition of cumulative concentrations of test compound to the bathing solution (Chang et al., 1993).
The ED50 values for formula (ii) were extrapolated from curves showing the dose concentration plotted against the response and are presented in FIG. 2.

reserpine treated rats = experiment: Locomotor activity in reserpine treated rats; format: in vivo, rat; settings: compound 18 hours after reserpine, 3, 10 or 30 mg/kg, total counts over 1 h
Procedure: (§3) Behavioral parameters were monitored in transparent shoebox cages that measured 45×25×20 cm, with a 1-cm depth of wood chips on the cage floor and a plastic grid on top of the cage. Rectangular photocell monitors with a bank of 3 photocell beams surrounded each test cage. Ambulations (locomotor activity: total number of beam breaks in 1 hour) were recorded by computer and stored for each test session.
(§4) Animals were administered injections of dextrose, reserpine or haloperidol. Formula (i) or Formula (ii) was then administered 18 hours after reserpine at doses of 3, 10 or 30 mg/kg or 15 minutes after haloperidol at doses of 1, 3, 10 or 30 mg/kg. Animals were monitored over a 60-min period in all instances, and data are expressed as total counts over the entire 1 h test period. […] In these studies, clinically effective therapies such as dopamine replacement therapy restore locomotor activity in dopamine-depleted or dopamine antagonist treated animals. Dopamine replacement therapy also, however, produces an overshoot in locomotor activity beyond the locomotor counts observed with normal control animals (with intact dopamine systems). This is considered the activating component of dopamine replacement therapy that results in dyskinesias in Parkinson's patients.

haloperidol-treated rats = experiment: Locomotor activity in haloperidol treated rats; format: in vivo, rat; settings: for Efficacy on locomotor activity (FIG. 1): compound 15 minutes after haloperidol, 1, 3, 10 or 30 mg/kg, total counts over 1 h
Procedure: as §3, §4

mice [3] = experiment: Seizure-like convulsion incidence in mice; format: in vivo, mouse
From the text: One of the most obvious side-effects of potent delta agonists that rapidly penetrate the blood brain barrier is convulsive episodes reminiscent of possible seizure-like brain activity. The mouse is the chosen species for study of these effects since the mouse is the most highly convulsion-sensitive rodent species and mice present with a clear and obvious, whole body tonic-clonic convulsion. One of the earliest phases of delta agonist safety assessments is thus the determination of the convulsion threshold in mice.

rats [4] = experiment: Seizure-like convulsant activity in rats; format: in vivo, rat; settings: oral doses up to 40 mg/kg, results not shown
[5] = system: Parkinson's disease rodent models; experiment: Parkinson's disease rodent models (summary statements); format: in vivo, rat; settings: for Overshoot of locomotor activation beyond normal control animals: haloperidol- or reserpine-treated rats
Procedure: as §3, §4
An opioid receptor agonist selective for the delta receptor. • 2. Active in Parkinson's disease rodent models. • a. Potent at improving locomotor activity of haloperidol-treated rats. • b. Potent at improving locomotor activity in reserpine treated rats. • 3. Orally active in Parkinson's disease rodent models. • a.

[6] = system: MPTP-lesioned primate (marmosets) model of Parkinson's disease; settings: 10 mg/kg i.p., without attenuation of the anti-parkinsonian actions of L-DOPA; cited from earlier work
mu-opioid receptor [7] = molecular target: T2, mu-opioid receptor; settings: known results of SNC80; read-out: Receptor Binding Affinity, Ki Mu; cited from earlier work
kappa-opioid receptor [8] = molecular target: T3, kappa-opioid receptor; settings: known results of SNC80; read-out: Receptor Binding Affinity, Ki Kappa; cited from earlier work
mice [9] = settings: cited from earlier work
rats [10] = settings: cited from earlier work
[11] = system: rats treated with reserpine or dopamine receptor antagonists (haloperidol or SCH23390); settings: 10 mg/kg i.p.; cited from earlier work
MPTP-treated marmosets = settings: cited from earlier work

T4 sequence (P32300 whole entry): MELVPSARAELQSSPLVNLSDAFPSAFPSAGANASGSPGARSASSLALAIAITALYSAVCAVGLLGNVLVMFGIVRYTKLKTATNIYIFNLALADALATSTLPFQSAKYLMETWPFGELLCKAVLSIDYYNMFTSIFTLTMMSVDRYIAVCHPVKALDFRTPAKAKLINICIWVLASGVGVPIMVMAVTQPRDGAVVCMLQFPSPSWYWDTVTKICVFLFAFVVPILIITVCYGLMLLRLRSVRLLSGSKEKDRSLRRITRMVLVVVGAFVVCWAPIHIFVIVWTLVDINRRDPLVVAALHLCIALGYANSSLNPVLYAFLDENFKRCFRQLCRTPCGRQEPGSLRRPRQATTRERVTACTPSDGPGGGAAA
T2 sequence (P33535 whole entry): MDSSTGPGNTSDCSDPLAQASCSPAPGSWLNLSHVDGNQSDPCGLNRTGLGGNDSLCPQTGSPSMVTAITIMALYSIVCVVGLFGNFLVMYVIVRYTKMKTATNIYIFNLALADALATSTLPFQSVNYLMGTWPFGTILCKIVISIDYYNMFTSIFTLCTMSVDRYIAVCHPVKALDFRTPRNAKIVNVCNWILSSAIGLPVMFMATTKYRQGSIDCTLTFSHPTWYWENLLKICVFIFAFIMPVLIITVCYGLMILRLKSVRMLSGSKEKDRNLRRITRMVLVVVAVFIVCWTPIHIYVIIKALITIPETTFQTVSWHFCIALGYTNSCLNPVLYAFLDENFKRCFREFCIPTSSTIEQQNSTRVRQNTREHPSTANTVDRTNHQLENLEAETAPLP
T3 sequence (P41144 whole entry): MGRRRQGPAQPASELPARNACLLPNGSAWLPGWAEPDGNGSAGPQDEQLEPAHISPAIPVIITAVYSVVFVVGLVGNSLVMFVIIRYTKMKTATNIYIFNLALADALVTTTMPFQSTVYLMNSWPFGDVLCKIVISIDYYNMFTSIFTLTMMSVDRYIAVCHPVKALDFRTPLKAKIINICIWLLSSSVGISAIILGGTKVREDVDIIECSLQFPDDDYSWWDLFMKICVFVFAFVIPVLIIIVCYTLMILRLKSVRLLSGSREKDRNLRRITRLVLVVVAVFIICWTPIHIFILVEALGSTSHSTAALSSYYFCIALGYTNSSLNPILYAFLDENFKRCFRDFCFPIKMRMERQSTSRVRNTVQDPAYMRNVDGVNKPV
T1 sequence (P33533 whole entry): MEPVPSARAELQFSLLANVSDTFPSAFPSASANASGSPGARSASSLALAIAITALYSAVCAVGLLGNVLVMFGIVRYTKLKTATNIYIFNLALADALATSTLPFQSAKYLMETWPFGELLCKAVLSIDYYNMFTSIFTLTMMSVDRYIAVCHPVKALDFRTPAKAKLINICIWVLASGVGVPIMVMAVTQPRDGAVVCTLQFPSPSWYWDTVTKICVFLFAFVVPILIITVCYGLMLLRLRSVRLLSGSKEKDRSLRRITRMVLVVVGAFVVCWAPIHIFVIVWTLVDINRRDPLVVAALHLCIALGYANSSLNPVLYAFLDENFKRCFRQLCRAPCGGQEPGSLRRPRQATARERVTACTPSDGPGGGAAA

Row | Structure (SMILES) | Ki (delta-opioid receptor) | Ki (mu-opioid receptor [1]) | Ki (kappa-opioid receptor [2]) | EC50 (delta receptor) | Efficacy on locomotor activity (FIG. 1) (reserpine treated rats) | Efficacy on locomotor activity (FIG. 1) (haloperidol-treated rats; haloperidol treated rats) | Seizure-like convulsion incidence in mice (% of animals treated) (mice [3]; Intravenous 1 mg/kg) | Seizure-like convulsion incidence in mice (% of animals treated) (mice [3]; Intravenous 3 mg/kg) | Oral activity in Parkinson's disease rodent models [5] | Seizure-like convulsion incidence in mice (% of animals treated) (mice [3]; Oral 60 mg/kg) | other results
1 | CCN(CC)C(=O)c1ccc([C@H](c2cccc(O)c2)N2C[C@@H](C)N(Cc3cccc(F)c3)C[C@@H]2C)cc1 [Formula (i), 4-((alpha-R)-alpha-((2S,5R)-2,5-Dimethyl-4-(3-fluorobenzyl)-1-piperazinyl)-3-hydroxybenzyl)-N,N-diethylbenzamide] | 0.73 nM | 11.6 nM | 567 nM | 2.6 nM | clear efficacy | clear efficacy | 50% | 40% | Orally active |  | Binding affinity for the delta receptor compared to SNC80 (delta-opioid receptor): increased binding affinity; Binding affinity for the mu receptor compared to SNC80 (mu-opioid receptor [1]): increased binding affinity; Seizure-like convulsion incidence in mice (% of animals treated) (mice [3]; Intravenous 0.3 mg/kg): 0%; Seizure-like convulsion incidence in mice (% of animals treated) (mice [3]; Oral 15 mg/kg): 23%; Seizure activity in mice relative to SNC80 (mice [3]): reduced relative to SNC80; Oral seizure-like convulsant activity in rats (rats [4]): no oral-seizure-like convulsant activity; Overshoot of locomotor activation beyond normal control animals [5]: No evidence for overshoot of locomotor activation
2 | COc1cccc2c1[C@]13CCN(CC4CC4)[C@H](C2)[C@]1(OC)CCC(=O)C3 [cyprodime] |  |  |  |  |  |  |  |  |  |  | L-DOPA-induced dyskinesia [6]: reduce completely
3 | CCN(CC)C(=O)c1ccc([C@H](c2cccc(OC)c2)N2C[C@@H](C)N(Cc3cccc(F)c3)C[C@@H]2C)cc1 [Formula (iii), 4-((alpha-R)-alpha-((2S,5R)-2,5-Dimethyl-4-(3-fluorobenzyl)-1-piperazinyl)-3-methoxybenzyl)-N,N-diethylbenzamide] | 5.6 nM | 5000 nM | 100 nM | 29 nM |  |  |  | 20% |  | 0% | 
4 | Oc1ccc2c3c1O[C@H]1c4[nH]c5ccccc5c4C[C@@]4(O)[C@@H](C2)N(CC2CC2)CC[C@]314 [naltrindole, reference compound] |  |  |  |  |  |  |  |  |  |  | Effect alone in haloperidol treated rats (FIG. 4) (haloperidol-treated rats; naltrindole alone): no effect
5 | CCN(CC)C(=O)c1ccc([C@H](c2cccc(O)c2)N2C[C@@H](C)N(Cc3ccccc3F)C[C@@H]2C)cc1 [Formula (ii), 4-((Alpha-R)-Alpha-((2S,5R)-2,5-Dimethyl-4-(2-fluorobenzyl)-1-piperazinyl)-3-hydroxybenzyl)-N,N-diethylbenzamide] |  | 7.8 nM | 171 nM | 3 nM | clear efficacy | clear efficacy | 0% | 30% | Orally active | 30% | Binding affinity for the delta receptor compared to SNC80 (delta-opioid receptor): increased binding affinity; Ki (delta-opioid receptor; rat whole brain homogenate, 0.1 nM [3H]DPDPE, read-out: Receptor Binding Affinity, Ki Delta): 0.77 nM; Binding affinity for the mu receptor compared to SNC80 (mu-opioid receptor [1]): increased binding affinity; Beneficial effects in presence of delta receptor antagonist naltrindole (FIG. 4) (haloperidol-treated rats; haloperidol treated rats, with naltrindole (NTI)): completely blocked; Anti-parkinsonian syndrome effects (FIG. 3B) (haloperidol-treated rats; haloperidol-treated rats, i.p. (intraperitoneal)): shows potency; Anti-parkinsonian syndrome effects (FIG. 3A) (haloperidol-treated rats; haloperidol-treated rats, p.o. (oral, by gavage)): shows potency; Seizure-like convulsion incidence in mice (% of animals treated) (mice [3]; Oral 15 mg/kg): 20%; Seizure-like convulsion incidence in mice (% of animals treated) (mice [3]; Oral 30 mg/kg): 20%; Seizure activity in mice relative to SNC80 (mice [3]): reduced relative to SNC80; Overshoot of locomotor activation beyond normal control animals [5]: No evidence for overshoot of locomotor activation
6 | CCN(CC)C(=O)c1ccc([C@H](c2cccc(OC)c2)N2C[C@@H](C)N(Cc3ccccc3F)C[C@@H]2C)cc1 [Formula (iv), 4-((alpha-R)-alpha-((2S,5R)-2,5-Dimethyl-4-(2-fluorobenzyl)-1-piperazinyl)-3-methoxybenzyl)-N,N-diethylbenzamide] | 4.2 nM | 5000 nM | 100 nM | 4.1 nM |  |  | 0% | 20% |  | 10% | Seizure-like convulsion incidence in mice (% of animals treated) (mice [3]; Oral 30 mg/kg): 0%
7 | C=CCN1C[C@H](C)N([C@H](c2ccc(C(=O)N(CC)CC)cc2)c2cccc(OC)c2)C[C@H]1C [SNC80] |  |  |  |  | clear efficacy | clear efficacy | 30% | 100% | lack of oral activity |  | Seizure-like convulsion incidence in mice (% of animals treated) (mice [3]; Intravenous 0.3 mg/kg): 0%; Ki (mu-opioid receptor [7]): 4800 nM; Ki (kappa-opioid receptor [8]): 4100 nM; Seizure-like convulsions (Broom, et al., 2002) (mice [9]): produce seizure-like convulsions; Seizure-like convulsions (Broom, et al., 2002) (rats [10]): produce seizure-like convulsions; Behavioral deficits (ambulatory behavior, grooming, rearing, social interaction and exploration, static investigation) [11]: restored behavioral deficits; Parkinsonian posture induced by MPTP treatment (MPTP-treated marmosets): not statistically reversed; Motor activity, bradykinesia and disability scores (MPTP-treated marmosets; similar dose levels (10 mg/kg)): restored motor activity, bradykinesia and disability scores to normal
